For orientation: IC50 means the point on the concentration scale where inhibition reaches its midpoint. The term DC50 denotes the midpoint of the concentration-degradation curve. Low values mean degradation at low concentration, high ones degradation only at high concentration.

Assay [1] deals with 22RV1 cells.
In assay [2] the target is T1, androgen receptor (AR) splicing variant AR-v7 (Homo sapiens, UniProt P10275).
T1 construct: The degradation activity of compounds on AR-v7 in 22RV1 cells; host or cells: 22RV1 cells
T1 sequence (P10275 1-644 isoform P10275-3): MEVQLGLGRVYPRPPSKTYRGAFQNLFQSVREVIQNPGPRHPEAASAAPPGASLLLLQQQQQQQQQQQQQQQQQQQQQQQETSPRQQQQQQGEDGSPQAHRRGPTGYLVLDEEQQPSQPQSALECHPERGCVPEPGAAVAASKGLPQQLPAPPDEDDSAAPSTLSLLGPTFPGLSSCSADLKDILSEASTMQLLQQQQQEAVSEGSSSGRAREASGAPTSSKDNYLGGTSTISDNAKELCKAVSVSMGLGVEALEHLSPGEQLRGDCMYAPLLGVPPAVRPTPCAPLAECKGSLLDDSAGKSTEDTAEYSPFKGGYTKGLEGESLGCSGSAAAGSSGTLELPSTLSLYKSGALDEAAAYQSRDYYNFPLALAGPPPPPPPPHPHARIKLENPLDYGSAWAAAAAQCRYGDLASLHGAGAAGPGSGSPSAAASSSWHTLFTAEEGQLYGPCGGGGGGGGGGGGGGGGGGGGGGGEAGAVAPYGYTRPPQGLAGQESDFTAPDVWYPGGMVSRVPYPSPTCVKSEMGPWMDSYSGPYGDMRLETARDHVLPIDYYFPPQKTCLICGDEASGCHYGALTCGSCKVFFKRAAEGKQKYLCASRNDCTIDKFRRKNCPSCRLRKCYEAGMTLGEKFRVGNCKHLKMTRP
The assay can be described thus: Degradation activity on androgen receptor splicing variant AR-v7 in 22RV1 cells (ELISA). The class given is cell-based. Particulars: AR-v7 degradation in 22RV1 cells, 48 h, class symbols. On the technique in general: In an ELISA, binding on a coated surface is turned into a signal by an enzyme label.

[3] abbreviates: Homo sapiens, 22Rv1, 144 h, read-out: 22RV1 IC50 (nM), 22RV1 cells, 6 days culture, CCK-8, OD 450 nm.
Setting [4] is: read-out: 22RV1 IC50, 22RV1 cells, 6 days culture, CCK-8, OD 450 nm.

Like-named read-outs stand apart in the source and are kept apart here. A value given as a limit tells only on which side of the number the result lay.

On to `Cc1nc(-c2ncc(Oc3ccc(C(C)c4ccc(O[C@H]5C[C@H](Nc6ccc7c(c6)C(=O)N(C6CCC(=O)NC6=O)C7=O)C5)cc4)cc3)cn2)no1` (stereo partly shown) [Example 480], for which the half-inhibitory concentration (IC50) in assay [1] (setting [3]) was determined as 12 nM. This compound returned a DC50 in assay [2] of less than 10 nM.

Take `Cc1nnc(-c2nccc(Oc3ccc(C(C)(C)c4ccc(O[C@H]5C[C@H](Nc6ccc7c(c6)C(=O)N(C6CCC(=O)NC6=O)C7=O)C5)cc4)cc3)n2)o1` (stereo partly shown) [Example 289]: in assay [1] (setting [3]), the IC50 was 7 nM. In addition, the DC50 in assay [2] was less than 10 nM.

As for `CC(=O)c1ccc(Oc2ccc(C(C)(C)c3ccc(O[C@H]4C[C@@H](Nc5ccc6c(c5)C(=O)N(C5CCC(=O)NC5=O)C6=O)C4)cc3)cc2)cn1` (stereo partly shown) [Example 525], in assay [1] (setting [3]), the IC50 came to 8 nM. Moreover, the DC50 in assay [2] was in the range of 11 to 100 nM.

Turning to `CC(C)(c1ccc(Oc2ncnc(N3CC4(COC4)C3)c2F)cc1)c1ccc(O[C@H]2C[C@@H](Nc3ccc4c(c3)C(=O)N(C3CCC(=O)NC3=O)C4=O)C2)cc1` (stereo partly shown) [Example 574], the IC50 in assay [1] (setting [3]) stood at 5 nM. In assay [2], the half-maximal degradation concentration (DC50) was less than 10 nM.

As to `CCOc1nccc(COc2ccc(C(C)(C)c3ccc(OCCCNc4ccc5c(c4)C(=O)N(C4CCC(=O)NC4=O)C5=O)cc3)cc2)n1` (stereo not shown) [Example 69, 2-(2,6-dioxopiperidin-3-yl)-5-((3-(4-(2-(4-((2-ethoxypyrimidin-4-yl)methoxy)phenyl)propan-2-yl)phenoxy)propyl)amino)isoindolin-1,3-dione], the 50% inhibitory concentration (IC50) in assay [1] (setting [3]) stood at 50 nM. In assay [2], this compound came in with a DC50 of 11 to 100 nM.

For `CC(O)c1ncc(Oc2ccc(C(C)c3ccc(O[C@H]4C[C@H](Nc5ccc6c(c5)C(=O)N(C5CCC(=O)NC5=O)C6=O)C4)cn3)cc2)cn1` (stereo partly shown) [Example 219], the IC50 in assay [1] (setting [3]) came to 6 nM. This compound displayed a 50% degradation concentration (DC50) in assay [2] of less than 10 nM.

On to `CC(C)(c1ccc(OCc2ccnc(N3CC(N4CCC4)C3)n2)cc1)c1ccc(O[C@H]2C[C@@H](Nc3ccc4c(c3)C(=O)N(C3CCC(=O)NC3=O)C4=O)C2)cc1` (stereo partly shown) [Example 410], for which the concentration for half-maximal inhibition (IC50) in assay [1] (setting [3]) is 6 nM. The compound further had a DC50 in assay [2] of less than 10 nM.

For `CCC(CC)(c1ccc(Oc2cnc(C(C)O)cn2)cc1)c1ccc(O[C@H]2C[C@@H](Nc3ccc4c(c3)C(=O)N(C3CCC(=O)NC3=O)C4=O)C2)cc1` (stereo partly shown) [Example 295], the IC50 in assay [1] (setting [3]) was 11 nM. In assay [2], this compound displayed a DC50 of less than 10 nM.

On to `CC(=O)c1nccc(Oc2ccc(C(C)(C)c3ccc(O[C@H]4C[C@H](Nc5ccc6c(c5)C(=O)N(C5CCC(=O)NC5=O)C6=O)C4)cc3)cc2)n1` (stereo partly shown) [Example 246], for which the IC50 in assay [1] (setting [3]) is 5 nM. This compound also returned a DC50 in assay [2] of less than 10 nM.

Take `CC(C)(c1ccc(OCCCCCCCOCCCOCCCNc2ccc3c(c2)C(=O)N(C2CCC(=O)NC2=O)C3=O)cc1)c1ccc(OCc2ccnc(N3CC4(COC4)C3)n2)cc1` (stereo not shown) [Example 62, 5-((3-(3-((7-(4-(2-(4-((2-(2-oxa-6-azaspiro[3.3]heptan-6-yl)pyrimidin-4-yl)methoxy)phenyl)propan-2-yl)phenoxy)heptyl)oxy)propoxy)propyl)amino)-2-(2,6-dioxopiperidin-3-yl)isoindolin-1,3-dione]: the concentration for half-maximal inhibition (IC50) in assay [1] (setting [3]) worked out at 1500 nM. The DC50 in assay [2] is 1000 to 5000 nM.

For `Cc1nc(-c2ccnc(Oc3ccc(C(C)(C)c4ccc(O[C@H]5C[C@@H](Nc6ccc7c(c6)C(=O)N(C6CCC(=O)NC6=O)C7=O)C5)cc4)cc3)n2)no1` (stereo partly shown) [Example 173, 2-(2,6-dioxopiperidin-3-yl)-5-(((1s,3s)-3-(4-(2-(4-((4-(5-methyl-1,2,4-oxadiazol-3-yl)pyrimidin-2-yl)oxy)phenyl)propan-2-yl)phenoxy)cyclobutyl)amino)isoindolin-1,3-dione], in assay [1] (setting [3]), the IC50 is 13 nM. The half-maximal degradation concentration (DC50) in assay [2] was in the range of 11 to 100 nM.

Consider `CC(C)(c1ccc(OCc2ccnc(N3CC4(COC4)C3)n2)cc1)c1ccc(O[C@H]2C[C@@H](Nc3ccc4c(c3)CN(C3CCC(=O)NC3=O)C4=O)C2)cc1` (stereo partly shown) [Example 91, 3-(5-(((1s,3s)-3-(4-(2-(4-((2-(2-oxa-6-azaspiro[3.3]heptane-6-yl)pyrimidin-4-yl)methoxy)phenyl)propan-2-yl)phenoxy)cyclobutyl)amino)-1-oxoisoindolin-2-yl)piperidin-2,6-dione], for which, in assay [1] (setting [3]), the half-maximal inhibitory concentration (IC50) was 2 nM. Moreover, in assay [2], the 50% degradation concentration (DC50) is less than 10 nM.

Regarding `CC(=O)c1nccc(COc2ccc(C3(c4ccc(OCCCNc5ccc6c(c5)C(=O)N(C5CCC(=O)NC5=O)C6=O)cc4)CCC3)cc2)n1` (stereo not shown) [Example 351, 5-((3-(4-(1-(4-((2-acetylpyrimidin-4-yl)methoxy)phenyl)cyclobutyl)phenoxy)propyl)amino)-2-(2,6-dioxopiperidin-3-yl)isoindolin-1,3-dione], the 50% inhibitory concentration (IC50) in assay [1] (setting [3]) was 7 nM. The same compound had a DC50 in assay [2] of less than 10 nM.

In the case of `Cc1nnc(-c2cccc(COc3ccc(C(C)(C)c4ccc(O[C@H]5C[C@H](Nc6ccc7c(c6)C(=O)N(C6CCC(=O)NC6=O)C7=O)C5)cc4)cc3)n2)o1` (stereo partly shown) [Example 463], the IC50 in assay [1] (setting [3]) stood at 11 nM. Besides, in assay [2], the DC50 was less than 10 nM.

On to `CNc1nccc(COc2ccc(C(C)(C)c3ccc(OCCCNc4ccc5c(c4)C(=O)N(C4CCC(=O)NC4=O)C5=O)cc3)cc2)n1` (stereo not shown) [Example 390], for which the IC50 in assay [1] (setting [3]) is 26 nM. Moreover, the 50% degradation concentration (DC50) in assay [2] lay in the range of 11 to 100 nM.

Take `Cc1nc(-c2ncc(Oc3ccc(C(C)(C)c4ccc(OC5CC(Nc6ccc7c(c6)CN([C@H]6CCC(=O)NC6=O)C7=O)C5)cc4)cc3)cn2)no1` (stereo partly shown) [Example 101]: the IC50 in assay [1] (setting [4]) came to 2.4 nM. The compound further displayed a 50% degradation concentration (DC50) in assay [2] of less than 10 nM.

On to `CC(C)(c1ccc(OCc2ccnc(N3CC4(COC4)C3)n2)cc1)c1ccc(OCC2(Nc3ccc4c(c3)C(=O)N(C3CCC(=O)NC3=O)C4=O)CC2)cc1` (stereo not shown) [Example 564, 5-((1-((4-(2-(4-((2-(2-oxa-6-azaspiro[3.3]heptan-6-yl)pyrimidin-4-yl)methoxy)phenyl)propan-2-yl)phenoxy)methyl)cyclopropyl)amino)-2-(2,6-dioxopiperidin-3-yl)isoindolin-1,3-dione], for which the 50% inhibitory concentration (IC50) in assay [1] (setting [3]) is 40 nM. In addition, the DC50 in assay [2] lay within 11 to 100 nM.

Regarding `CC(C)(c1ccc(Oc2nnc(N3CCOCC3)s2)cc1)c1ccc(O[C@H]2C[C@H](Nc3ccc4c(c3)C(=O)N(C3CCC(=O)NC3=O)C4=O)C2)cc1` (stereo partly shown) [Example 513], the 50% inhibitory concentration (IC50) in assay [1] (setting [3]) came to 12 nM. This compound showed a DC50 in assay [2] of less than 10 nM.

On to `CCC(CC)(c1ccc(OCCCNc2ccc3c(c2)C(=O)N(C2CCC(=O)NC2=O)C3=O)cc1)c1ccc(OCc2ccnc(C(C)=O)n2)cc1` (stereo not shown) [Example 350, 5-((3-(4-(3-(4-((2-acetylpyrimidin-4-yl)methoxy)phenyl)pentan-3-yl)phenoxy)propyl)amino)-2-(2,6-dioxopiperidin-3-yl)isoindolin-1,3-dione], for which the half-maximal inhibitory concentration (IC50) in assay [1] (setting [3]) is 30 nM. The compound further gave a DC50 in assay [2] of 11 to 100 nM.

`CC(C)(c1ccc(OCCCNc2ccc3c(c2)C(=O)N(C2CCC(=O)NC2=O)C3=O)cc1)c1ccc(OCc2ccnc(N3CC4(COC4)C3)n2)cc1` (stereo not shown) [Example 73, 5-((3-(4-(2-(4-((2-(2-oxa-6-azaspiro[3.3]heptan-6-yl)pyrimidin-4-yl)methoxy)phenyl)propan-2-yl)phenoxy)propyl)amino)-2-(2,6-dioxopiperidin-3-yl)isoindolin-1,3-dione]: in assay [1] (setting [3]), the 50% inhibitory concentration (IC50) was determined as 25 nM. In assay [2], this compound had a DC50 of 11 to 100 nM.

With `CC(C)(c1ccc(Oc2ncnc(N3CC4(COC4)C3)n2)cc1)c1ccc(O[C@H]2C[C@H](Nc3ccc4c(c3)C(=O)N(C3CCC(=O)NC3=O)C4=O)C2)cc1` (stereo partly shown) [Example 160], the IC50 in assay [1] (setting [3]) was 8 nM. In addition, the DC50 in assay [2] was less than 10 nM.

Take `CC(O)c1ncc(Oc2ccc(C3(c4ccc(O[C@H]5C[C@H](Nc6ccc7c(c6)C(=O)N(C6CCC(=O)NC6=O)C7=O)C5)cc4)CCCC3)cc2)cn1` (stereo partly shown) [Example 134]: the IC50 in assay [1] (setting [3]) was less than 1 nM. This compound also came in with a DC50 in assay [2] of less than 10 nM.

For the compound `O=C1CCC(N2C(=O)c3ccc(NC4CC(Oc5ccc(C6(c7ccc(OCc8ccnc(N9CC%10(COC%10)C9)n8)cc7)CCC6)cc5)C4)cc3C2=O)C(=O)N1` (stereo not shown) [Example 356, 5-((3-(4-(1-(4-((2-(2-oxa-6-azaspiro[3.3]heptane-6-yl)pyrimidin-4-yl)methoxy)phenyl)cyclobutyl)phenoxy)cyclobutyl)amino)-2-(2,6-dioxopiperidin-3-yl)isoindolin-1,3-dione], in assay [1] (setting [3]), the IC50 is 16 nM. This compound gave a half-maximal degradation concentration (DC50) in assay [2] of less than 10 nM.

Regarding `CC(C)(c1ccc(OCCCNc2ccc3c(c2)C(=O)N(C2CCC(=O)NC2=O)C3=O)cc1)c1ccc(OCc2ccnc(N3CCC4(CC3)COC4)n2)cc1` (stereo not shown) [Example 77, 5-((3-(4-(2-(4-((2-(2-oxa-7-azaspiro[3.5]nonan-7-yl)pyrimidin-4-yl)methoxy)phenyl)propan-2-yl)phenoxy)propyl)amino)-2-(2,6-dioxopiperidin-3-yl)isoindolin-1,3-dione], the concentration for half-maximal inhibition (IC50) in assay [1] (setting [3]) was found to be 44 nM. Besides, in assay [2], the DC50 fell in the range of 11 to 100 nM.

Regarding `Cn1cc(-c2cccc(COc3ccc(C(C)(C)c4ccc(O[C@H]5C[C@H](Nc6ccc7c(c6)C(=O)N(C6CCC(=O)NC6=O)C7=O)C5)cc4)cc3)n2)cn1` (stereo partly shown) [Example 416], the IC50 in assay [1] (setting [3]) was found to be 22 nM. In addition, in assay [2], the 50% degradation concentration (DC50) is less than 10 nM.

As to `CC(C)(c1ccc(Oc2cc(F)cnc2-n2ccnn2)cc1)c1ccc(O[C@H]2C[C@H](Nc3ccc4c(c3)C(=O)N(C3CCC(=O)NC3=O)C4=O)C2)cc1` (stereo partly shown) [Example 517], the concentration for half-maximal inhibition (IC50) in assay [1] (setting [4]) was determined as 16 nM. In assay [2], this compound showed a DC50 of less than 10 nM.

(Values after US20250051347A1, “BIFUNCTIONAL CHIMERIC HETEROCYCLIC COMPOUND AND USE THEREOF AS ANDROGEN RECEPTOR DEGRADER” (Hinova Pharmaceuticals, Inc., priority 2021, published 2025).)
